Experiments:
[1] = target: botulinum neurotoxin (BoNT/A) (Clostridium botulinum, UniProt P0DPI0); parameters: key to BoNT neutralization effects of tea-leaf extract ingredients: Effect: +: Effective in neutralization; −: Ineffective in neutralization
mouse = conditions: in vivo, po

Sequence of botulinum neurotoxin (BoNT/A) (P0DPI0 whole entry, looked up): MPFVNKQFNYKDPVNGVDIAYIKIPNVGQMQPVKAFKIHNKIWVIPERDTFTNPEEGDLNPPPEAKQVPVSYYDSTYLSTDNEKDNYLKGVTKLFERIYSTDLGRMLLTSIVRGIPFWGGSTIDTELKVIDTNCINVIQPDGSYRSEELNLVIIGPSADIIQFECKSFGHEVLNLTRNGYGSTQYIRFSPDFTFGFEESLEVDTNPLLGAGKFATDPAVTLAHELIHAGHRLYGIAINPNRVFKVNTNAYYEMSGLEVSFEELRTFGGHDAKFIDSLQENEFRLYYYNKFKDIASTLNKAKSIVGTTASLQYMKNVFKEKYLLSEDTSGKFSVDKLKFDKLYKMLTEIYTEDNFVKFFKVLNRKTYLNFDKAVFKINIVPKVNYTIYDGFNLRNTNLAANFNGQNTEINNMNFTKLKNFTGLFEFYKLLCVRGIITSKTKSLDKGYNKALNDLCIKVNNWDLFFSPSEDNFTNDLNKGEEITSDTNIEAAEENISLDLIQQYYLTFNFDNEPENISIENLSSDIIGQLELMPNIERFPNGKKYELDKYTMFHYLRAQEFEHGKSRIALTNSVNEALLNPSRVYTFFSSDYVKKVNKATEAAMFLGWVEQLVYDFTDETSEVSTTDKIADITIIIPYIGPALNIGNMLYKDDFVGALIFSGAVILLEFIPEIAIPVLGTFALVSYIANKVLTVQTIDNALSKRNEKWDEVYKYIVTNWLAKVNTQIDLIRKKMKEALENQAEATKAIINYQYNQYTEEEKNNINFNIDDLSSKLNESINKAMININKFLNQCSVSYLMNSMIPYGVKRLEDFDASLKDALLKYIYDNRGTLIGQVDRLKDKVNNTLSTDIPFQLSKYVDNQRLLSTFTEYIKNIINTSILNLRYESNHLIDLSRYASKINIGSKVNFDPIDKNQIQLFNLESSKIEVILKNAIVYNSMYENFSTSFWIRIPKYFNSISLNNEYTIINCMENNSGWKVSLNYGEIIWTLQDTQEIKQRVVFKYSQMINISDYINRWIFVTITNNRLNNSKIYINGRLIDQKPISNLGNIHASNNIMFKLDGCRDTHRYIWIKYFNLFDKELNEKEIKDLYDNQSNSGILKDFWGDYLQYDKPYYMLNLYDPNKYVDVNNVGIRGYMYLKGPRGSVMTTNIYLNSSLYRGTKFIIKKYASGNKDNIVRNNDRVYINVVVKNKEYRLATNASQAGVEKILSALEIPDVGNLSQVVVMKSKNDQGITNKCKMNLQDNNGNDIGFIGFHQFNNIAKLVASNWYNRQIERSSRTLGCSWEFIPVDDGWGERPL

Molecule	BoNT neutralization effects of tea-leaf extract ingredients: Effect [1]	BoNT neutralizing effect (in words) [1]	toxicity (in words) (mouse)
O=C(OC[C@H]1O[C@@H](OC(=O)c2cc(O)c(O)c(OC(=O)c3cc(O)c(O)c(O)c3)c2)[C@H](OC(=O)c2cc(O)c(O)c(OC(=O)c3cc(O)c(O)c(O)c3)c2)[C@@H](OC(=O)c2cc(O)c(O)c(OC(=O)c3cc(O)c(O)c(O)c3)c2)[C@@H]1OC(=O)c1cc(O)c(O)c(OC(=O)c2cc(O)c(O)c(O)c2)c1)c1cc(O)c(O)c(OC(=O)c2cc(O)c(O)c(O)c2)c1 [Tannic Acid, tannic acid]	−	showed no neutralizing effect	
O=c1c(O)cc([C@H]2Oc3cc(O)cc(O)c3C[C@H]2O)cc2c([C@H]3Oc4cc(O)cc(O)c4C[C@H]3O)cc(O)c(O)c12 [Theaflavin, theaflavin]	−	showed no neutralizing effect	
catechin	−	showed no neutralizing effect	
thearubigin			no toxicity

From patent US20050064050A1 (priority 1999, published 2005)
